According to publication PMC7767506, “Synthesis and Characterization of Store-Operated Calcium Entry Inhibitors Active in the Submicromolar Range” (International Journal of Molecular Sciences, 2020):

Assays:
[1] = tested on: SOCE in DG75 (human Burkitt lymphoma cell line); experiment: Thapsigargin-induced SOCE in DG75 cells, Indo-1; assay type: cell-based
Method: We also tested P11 on the DG75 (Burkitt B lymphoma), U937 (monocytic lymphoma), and MDA-MB231 (breast carcinoma) cell lines. […] Thus, in several cell lines, full inhibition of the SOCE was already obtained at a concentration of 100 nM (Figure 3B).
[Ca^2+]cyt was recorded by a fluorimetric ratio technique as previously described. Leukocytes were spun and resuspended at a density of 10^6 cells/mL in Hepes buffered saline (HBS; 135 mM NaCl, 5.9 mM KCl, 1.2 mM MgCl2, 11.6 mM Hepes, 11.5 mM glucose adjusted to pH 7.3 with NaOH). Due to the presence of 0.002% Ca^2+ in the NaCl, this HBS medium contained 0.1 mM of Ca^2+. Then, cells were incubated in the dark with 4 μM Indo-1-AM for one hour at room temperature under slow agitation. […] Ultraviolet light of 360 nm was used for excitation of Indo-1, and emissions at 405 and 480 nm were recorded. […] The maximum Indo-1 fluorescence (Rmax) was obtained by adding 1 µM ionomycin to the cell suspension in the presence of 10 mM extracellular CaCl2. Minimum fluorescence was determined following the depletion of external Ca^2+ with 5 mM EGTA.
To visualize the SOCE, cells were placed into the quartz cuvette and 0.5 EGTA was added just before the beginning of the recordings. […] In the dose-response experiments, different concentrations of 2-APB and its analogs were added 30 s prior to Ca^2+ readdition.

[2] = tested on: IL-2 synthesis by Jurkat T cells; experiment: IL-2 ELISA in supernatants of Jurkat cells; assay type: cell-based, human
Method: We next studied the effect of increasing [P11] on the neo-synthesized IL-2 concentration in the medium of PHA -stimulated Jurkat cells after 24 h.
Forty-eight-well plates were seeded with 10^6 Jurkat T cells per well. Cells were then incubated for 24 h with or without 10 µg/mL PHA and 0 to 1 µM P11 in complete culture medium. After 24 h, supernatants were collected, and IL-2 amounts were quantified using a Quantikine Human IL-2 Immunoassay (R&D Systems Europe, Lille, France). Optical density (OD) was measured at 450 nm using a Victor3 plate reader (Perkin Elmer, Courtaboeuf, France). The concentration of supernatant IL-2 was determined from the OD curve obtained with the standard. Results were the mean of four repeats. In parallel plates, cell viability was accessed after treatment with trypan blue and counting with a Malassez hematimeter (Sigma-Aldrich, Saint Quentin Fallavier, France).

[3] = tested on: PHA-stimulated Jurkat cells; experiment: PHA-induced Ca2+ mobilization in Jurkat cells, Indo-1; assay type: cell-based, human
Text: Having shown that compound P11 was able to block the Jurkat cell SOCE, we next performed experiments using phytohemagglutinin (“PHA”). PHA is commonly used to cross-link the T cell receptor allowing the synthesis of IL-2 and thereafter the T cell activation. […] Noteworthy, PHA was able to induce a weak Ca^2+ release from internal stores (orange curve). […] However, after reaching a peak at 180 s, the [Ca^2+]cyt started to decay and decreased to a value beneath the [Ca^2+]cyt before cell stimulation.
In experiments with PHA, cells were placed in the cuvette, and 0.9 mM CaCl2 was added to reach a 1 mM extracellular concentration. Free Ca^2+ concentrations were calculated using the Bad4 software

[4] = tested on: caspase-3 activity in Jurkat cells; experiment: Fluorometric caspase-3 activity assay (Ac-DEVD-AFC) in Jurkat cells; assay type: cell-based, human
Method: To verify the mechanism of cell death induced by compound P11, we next performed caspase-3 activity assays using the fluorogenic Ac-DEVD-AFC substrate as well as a TUNEL assay.
Caspase-3 activity was measured using the fluorogenic substrate Ac-DEVD-AFC (Tebu-bio, Le Perray-en-Yvelines, France) according to the manufacturer’s instructions. Briefly, 48-well plates were seeded with 10^6 Jurkat T cells per well. Cells were then incubated for 24 h with 0, 1, or 10 µg/mL PHA and 0 to 1 µM P11 in complete culture medium. After 24 h, cells were collected and lysed in RIPA lysis buffer supplemented with protease inhibitor cocktails (Life Science Biorad, Marnes la Coquette, France). The protein samples were quantified using the DC protein assay reagent (Biorad, Les Ulis, France). Cell lysates (50 µg) were diluted with reaction buffer (200 mM Hepes pH 7.4, 1 mM EDTA, 20% sucrose and 20 mM dithiothreitol) and incubated with the fluorogenic substrate (20 µM final concentration) for 45 min up to 7 h at 37 °C. The release of 7-amino-4-trifluoromethylcoumarin (AFC) was measured by fluorescence (excitation at 405 nm, emission at 505 nm) using a Victor3 plate reader (Perkin Elmer, Courtaboeuf, France).

2-(dibiphenyl-4-ylboryloxy)ethanamine [P11]
Ki ([1]; DG75 cells): 32 ± 2 nM | concentration of full SOCE inhibition ([1]; in several cell lines (Figure 3B)): 100 nM | IL-2 synthesis by compound alone ([2]; 1 µM, no PHA): not able to induce IL-2 synthesis | IL-2 concentration in medium ([2]; 10 µg/mL PHA + 1 µM P11, 24 h): 26 ± 6 pg/mL | change of IL-2 synthesis ([2]; 10 µg/mL PHA + 1 µM P11, 24 h, vs PHA alone): −74% | IL-2 corrected for the number of living cells ([2]; PHA + P11 (highest concentration), 24 h): 39.2 ± 8.6 pg/mL | decrease of IL-2 synthesis capacity of living cells ([2]; PHA + P11 vs PHA alone): ≈ 63% | PHA-induced Ca2+ release from internal stores ([3]; 1 µM): did not affect | PHA-induced Ca2+ mobilization ([3]; increasing [P11], 10 µg/mL PHA, 1 mM extracellular CaCl2): largely inhibited | caspase-3 activity ([4]; 10 µg/mL PHA + 1 µM P11, 24 h): 3332 ± 113 AU | caspase-3 activity, compound alone ([4]; P11 alone, up to 1 µM): did not induce any increase | concentration giving maximal activating effect on caspase-3 activity ([4]; with 10 µg/mL PHA, 24 h): 10 nM
